Results as given in patent US5443967A, “DNA encoding the cancer associated SCM recognition factor” (priority 1993, dated 1995).
Entries after “also recorded” stand apart in the source; their conditions may differ. *1 amine or outer side, *2 acyl side, *3 side chain or, on linkers, in order; H or OH if unused. Where a SMILES comes first, the peptide text is derived from it. Bridges are numbered along the chain shown (N, C = ends). Roman numbers before positions name the chains, in order. Where no end group is shown, it is not given here. [ ]: non-standard residue; d: D form. Actinocin(9to1) = Cc1c2oc3c(C)ccc(C(=O)[*:1])c3nc-2c(C(=O)[*:2])c(N)c1=O; NMeV = CN[C@H](C(=O)O)C(C)C; Sar = CNCC(=O)O

What was measured:
[1] = tested on: K 562 human myeloid cell line; experiment: Natural lymphocyte cytotoxicity against K 562 cells (51Cr release); type: cell-based; details: for Percent Cytotoxicity: PBL, 35 femtomoles, 2.5 hours 37° C., 40:1; for Percent Cytotoxicity: Treated & Washed Lymphocytes: 35 femtomoles per lymphocyte, effector/target 40:1
Description: Aliquots of these lymphocytes were also retained as controls and not incubated. In addition, potentially SCM-responding lymphocytes were obtained from donors having cancer, and treated in the same manner-some aliquots incubated with plasma containing SCM factor and others retained as controls and not incubated.
After incubation the cytotoxicity of the lymphocytes was tested in accordance with the method described in M. R. Potter and M. Moore, "Natural Cytotoxic Reactivity of Human Lymphocyte Subpopulations," Immunology 37, 187-194 (1979). In accordance with this published method cells of the K 562 human myeloid cell line labeled with ^51 Cr were used as target cells for the assay. The potentially SCM-responding lymphocytes were used as the effector cells. The ratio of target cells to effector cells was 1 to 20. […] The percent of cytotoxicity is determined as follows: [formula] where RS is the percent of ^51 Cr release in the sample, RC the percent of ^51 Cr release in the control and RT is the percent of ^51 Cr release in the presence of a detergent, Triton X-100. […] When the incubation was performed with potentially SCM-responding lymphocytes from cancer patients, the decrease in cytotoxicity was smaller, between 40 and 90%. […] The lower level of cytotoxicity present in cells from cancer patients was consistent with a decrease of such cytotoxicity caused by in vivo exposure to factors such as the cancer-associated SCM recognition factor.
The purified synthetic SCM factor molecule and peptides F1-F5, F7, and F8, as described above in Example 16, were investigated to determine their suppressive effect on the natural cytotoxicity of lymphocytes against cancer cells, using the human myeloid cell line K 562 as target as measured by the conventional ^51 Cr release method (Example 13).
In brief, the K 562 target cells grown in suspension in RPMI-FBS culture medium were washed and labeled for 3 hours at 37° C. with 100 μCi sodium [^51 Cr]chromate and then washed 4 times in RPMI growth medium. The effector lymphocytes used were isolated from heparinized peripheral blood of normal healthy donors using either appropriate density solutions to isolate the SCM-responding subpopulation of lymphocytes, as described above under "Isolation of SCM-responding Lymphocytes," or the conventional separation medium Histopaque 1077 for isolation of the total population of peripheral blood lymphocytes (PBL). The effector cell to target cell ratio used in these experiments was 40:1. Control samples contained target cells only and were used to determine background isotope release from the target cells. The test samples contained 0.2 mL aliquots of labeled target cells to which 0.2 mL of effector lymphocytes was added; the effector lymphocytes were either untreated or had been pretreated with either the entire synthetic SCM factor or any of the fragments designated F1 to F5, F7, or F8 for 2.5 hours at 37° C. The tests were carries out in triplicate. Cell suspensions were incubated for 18 hours at 37° C. in an atmosphere of 95% air and 5% CO2. Samples were then centrifuged for 10 minutes at 200 xg. From each test sample tube, a 0.2 mL aliquot of the supernatant was removed. Both the supernatant and the remaining cell pellet were counted in a Beckman gamma counter. The maximum possible isotope release was taken as the count obtained by adding the counts for the supernatant and cell pellets. The percentage of ^51 Cr release was determined for each of the triplicate samples; using the mean value of ^51 Cr release, the percentage of cytotoxicity was calculated according to the equation presented in Table 25.

[2] = tested on: SCM-responding lymphocytes; details: from prior applications Ser. No. 07/167,007 and 07/163,250; cited from earlier work
MCF7 breast cancer cells = experiment: SCM factor in cultured cancer cells by noncompetitive ELISA; type: cell-based, human
Description: (§1) The SCM factors secreted from human cancer cells in culture whose amino acid sequences were presented in Example 24 also reacted with the anti-SCM antibody of Example 20. A variation on the ELISA assay of Example 21 was used. In this version of the ELISA assay, the assay was performed directly on the eluate from the RP-HPLC purification step that remained adsorbed to the Eppendorf™ collection tubes after loading of the bulk of the eluates onto the sequenator disk. No other SCM factor was added, and there was no additional sample added to the assay. This version of the SCM ELISA assay is noncompetitive; the larger is the quantity of SCM factor adsorbed to the Eppendorf™ tubes, the higher is the measured A405. The results, shown in Table 15, clearly indicate the presence of material able to react with anti-SCM antibody in these fractions.
(§2) Human cancer cells in culture were directly shown to contain SCM-factor molecules by antibody reactivity. Washed cells from monolayered cultures of several human cancer cells: MCF7 breast cancer cells; T1080 fibrosarcoma cells; A2780 ovarian cancer cells; and HCT80 colon cancer cells, were assayed directly by the noncompetitive ELISA assay procedure of Example 25.
As shown in Table 17 of Example 26, treatment of human cultured cancer cells with cycloheximide, an inhibitor of protein synthesis, decreases the amount of SCM factor produced by these cells. […] The amounts of SCM factor per 7×10^6 cells in the presence or absence of 10^-3 molar ascorbic acid after a 16-hour incubation were measured by the noncompetitive ELISA procedure of Example 25. The aliquot of cancer cells incubated in the presence of ascorbate ions produced 43.9% less SCM factor than untreated control cells.

T1080 fibrosarcoma cells = experiment: as above; type: cell-based, human
Description: as §1, §2

[3] = tested on: SCM-responding lymphocytes from healthy donors; experiment: Modification/induction of SCM response of lymphocytes from healthy donors by preincubation with SCM factor; type: cell-based, human; details: 10 μg/5×10^6 cells during incubation with synthetic SCM factor
Description: 10, 1986, and entitled "Automated Collection of Buoyant Density Specific Cells from Density Gradients." Aliquots of these cells were incubated in 3 ml of the following: (a) cell-free blood plasma from cancer patients; (b) plasma from cancer patients ultrafiltered for 12 hours through an Amicon™ UM2 filter with a molecular weight cutoff of 1000 daltons; (c) plasma from cancer patients ultrafiltered for 12 hours through an Amicon™ UM5 filter with a nominal molecular weight cutoff of 500 daltons; (d) general cancer-associated SCM factor as purified through the desalting or Sephadex G-10 column stage; (e) the factor as purified through the Sephadex G-50 column stage; (f) the factor as purified through the DEAE-cellulose column step; (g) the factor as finally purified through the RP-HPLC step; and (h) plasma from healthy donors ultrafiltered through an Amicon™ UM2 filter with a nominal molecular weight cutoff of 1000 daltons. […]
Before being contacted with either a mitogen or with the SCM factor for determination of the RRSCM the incubated cells were thoroughly washed. The presence or absence of modification was determined by the ratio of the polarization value of the lymphocyte suspension after a short contact period with substrates containing the SCM factor over the polarization value of the lymphocyte suspension after a short contact period with phytohaemagglutinin (PHA). […]

[4] = experiment with untreated control 72.7 ± 1.2
[5] = experiment with untreated control 80.4 ± 1.0
[6] = cycloheximide 50 μg/10^6 cells, 16 hrs
[7] = experiment with untreated control 46.5 ± 1.5
[8] = experiment with untreated control 71.2 ± 1.5

## FNKPFVFLMIDQNTK [F3, F-N-K-P-F-V-F-L-M-I-D-Q-N-T-K]
[1]; [4]
  Percent Cytotoxicity: 74.5 ± 1.5%
[1]; [5]
  Percent Cytotoxicity: 80.5 ± 1.0%

## F-W-G-A-E-G-Q-R (FWGAEGQR)
[2]
  SCM factor activity: with SCM-factor activity

## C[C@@H]1C[C@@H]([C@H](O)CC2CC(=O)NC(=O)C2)C(=O)[C@@H](C)C1 [Cycloheximide, cycloheximide]
MCF7 breast cancer cells; cycloheximide 20 μg/10^6 cells, 3 hrs
  Corrected A405 As % of Control: 91.2 % of Control
MCF7 breast cancer cells; cycloheximide 20 μg/10^6 cells, 3 hrs, control 2.0716
  Corrected A405 (SCM factor synthesis): 1.8893
MCF7 breast cancer cells; [6]
  Corrected A405 As % of Control: 74.7 % of Control
MCF7 breast cancer cells; cycloheximide 50 μg/10^6 cells, 16 hrs, control 0.9654
  Corrected A405 (SCM factor synthesis): 0.7217
MCF7 breast cancer cells; cycloheximide treatment
  decrease of concentration of SCM factor associated with the cells: 25.3%
T1080 fibrosarcoma cells; [6]
  Corrected A405 As % of Control: 66.0 % of Control
T1080 fibrosarcoma cells; cycloheximide 50 μg/10^6 cells, 16 hrs, control 1.5060
  Corrected A405 (SCM factor synthesis): 0.9940
T1080 fibrosarcoma cells; cycloheximide treatment
  decrease of concentration of SCM factor associated with the cells: 34%
[3]
  induction of response to synthetic SCM factor in presence of protein synthesis inhibitor: no response to synthetic SCM factor was induced

## MIPPEVKFNKPFVFLMIDQNTKVPLFMGK [Synthetic SCM Factor, MIPPEVKFNKPFVFLMIDQNTKVPLFMGK]
[1]
  dose resulting in a 50% decrease in cytotoxicity: 11.5 femtomoles per lymphocyte
  quantity required for a 50% decrease of the cytotoxic effect: 11.5 femtomoles
[1]; PBL of healthy donors
  Percent Cytotoxicity: Treated & Washed Lymphocytes: 3.0 ± 0.8%
[1]; [7]
  Percent Cytotoxicity: 0.1 ± 0.8%
[1]; [4]
  Percent Cytotoxicity: 3.2 ± 0.1%
[1]; [5]
  Percent Cytotoxicity: 3.1 ± 0.8%
[1]; SCM-R lymphocytes of healthy donors
  Percent Cytotoxicity: Treated & Washed Lymphocytes: 0.1 ± 0.9%

## VPLFMGK [F8]
[1]; experiment with untreated control 31.0 ± 2.0
  Percent Cytotoxicity: 33.0 ± 1.8%
[1]; [8]
  Percent Cytotoxicity: 71.7 ± 1.2%

## O=C1O[C@H]([C@@H](O)CO)C(O)=C1O [L-ascorbic acid]
MCF7 breast cancer cells; 1 × 10^-3 M, pH 7.1, 16 hrs at 37° C., 7×10^6 cells, control 1.7448
  Corrected ELISA A405 (SCM factor synthesis): 0.9788
MCF7 breast cancer cells; 10^-3 molar, 16-hour incubation
  less SCM factor produced than untreated control cells: 43.9%
MCF7 breast cancer cells; Homo sapiens, MCF7, 1 × 10^-3 M, pH 7.1, 16 hrs at 37° C., read-out: Corrected ELISA A405 as % of Control
  activity at 1000 µM: 56.1%

## MIPPEVKFNKPFVFLMDQNTK [F1, MIPPEVKFNKPFVFLMDQNTK]
[1]; [4]
  Percent Cytotoxicity: 78.5 ± 1.0%
[1]; [5]
  Percent Cytotoxicity: 81.0 ± 1.0%

## F-S-W-G-A-E-G-Q-R (FSWGAEGQR) [EAE peptide, experimental allergic encephalitogenic peptide]
[2]
  SCM factor activity: has no SCM factor activity; also recorded: completely devoid of SCM activity

## FLMIDQNTK [F4, F-L-M-I-D-Q-N-T-K]
[1]; [7]
  Percent Cytotoxicity: 48.6 ± 1.3%
[1]; [4]
  Percent Cytotoxicity: 76.2 ± 1.3%
[1]; [5]
  Percent Cytotoxicity: 81.0 ± 1.5%

## FNKPFVFLMIDQNTKVPLFMGK [F2, FNKPFVFLMIDQNTKVPLFMGK]
[1]; [7]
  Percent Cytotoxicity: 2.4 ± 0.2%
[1]; [4]
  Percent Cytotoxicity: 14.9 ± 1.5%
[1]; [5]
  Percent Cytotoxicity: 2.6 ± 1.7%

## Cc1c2oc3c(C)ccc(C(=O)N[C@@H]4C(=O)N[C@H](C(C)C)C(=O)N5CCC[C@H]5C(=O)N(C)CC(=O)N(C)[C@@H](C(C)C)C(=O)O[C@@H]4C)c3nc-2c(C(=O)N[C@@H]2C(=O)N[C@H](C(C)C)C(=O)N3CCC[C@H]3C(=O)N(C)CC(=O)N(C)[C@@H](C(C)C)C(=O)O[C@@H]2C)c(N)c1=O [Actinomycin D, actinomycin D] (I: T[dV]P[Sar][NMeV] / II: T[dV]P[Sar][NMeV]; ester I:1-I:C, II:1-II:C; linker I:N-II:N via Actinocin(9to1))
[3]
  induction of response to synthetic SCM factor in presence of protein synthesis inhibitor: no response to synthetic SCM factor was induced

## FLMIDQNTKVPLFMGK [F7]
[1]; [8]
  Percent Cytotoxicity: 72.7 ± 1.0%

## MIPPEVKFNKPFVF [F5, M-I-P-P-E-V-K-F-N-K-P-F-V-F]
[1]; [4]
  Percent Cytotoxicity: 72.7 ± 1.3%
[1]; [5]
  Percent Cytotoxicity: 79.8 ± 0.9%
